Calls of active or inactive are those of the source. The calls are words filed in the database; no cut-off is given here.
Tests used:
Mus musculus [1] = experiment: Antiphotoaging activity in DBA-2 mouse assessed as reduction of UVB-induced melanocyte proliferation in ear tissue at 92.4 to 462.2 mg/kg, po as powder qd for 12 days relative to untreated control; format: functional; settings: dose mg/kg 92.4-462.2
[2] = biological target: Transcription factor p65 (Homo sapiens) (UniProt Q04206); experiment: Inhibition of NF-kappaB p65 expressed in human keratinocytes co-cultured with human epidermal melanocytes assessed as inhibition of melanocyte proliferation at 4 uM by WST-1 assay; format: cell-based
Transcription factor p65 (Homo sapiens), sequence (Q04206 whole entry): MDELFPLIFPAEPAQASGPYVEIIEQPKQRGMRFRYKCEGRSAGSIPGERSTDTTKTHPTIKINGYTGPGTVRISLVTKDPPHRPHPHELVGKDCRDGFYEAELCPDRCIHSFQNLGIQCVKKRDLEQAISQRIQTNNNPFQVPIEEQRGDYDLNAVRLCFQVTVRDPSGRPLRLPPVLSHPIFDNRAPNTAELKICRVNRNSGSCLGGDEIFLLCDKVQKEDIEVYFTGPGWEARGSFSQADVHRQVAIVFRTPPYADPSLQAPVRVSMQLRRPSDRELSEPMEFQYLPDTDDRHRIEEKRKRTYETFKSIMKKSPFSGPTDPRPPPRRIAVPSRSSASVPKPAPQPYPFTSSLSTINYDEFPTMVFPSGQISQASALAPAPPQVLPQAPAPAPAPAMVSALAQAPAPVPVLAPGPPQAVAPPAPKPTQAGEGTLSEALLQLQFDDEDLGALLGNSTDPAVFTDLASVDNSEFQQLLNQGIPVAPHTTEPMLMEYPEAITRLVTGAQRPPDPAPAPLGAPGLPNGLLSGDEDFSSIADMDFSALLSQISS

Mus musculus [3] = experiment: Antiphotoaging activity in DBA-2 mouse assessed as reduction of UVB-induced epidermal hyperproliferation in ear tissue administered as po as powder qd for 12 days relative to untreated control; format: functional, organism-based
HEK293 = experiment: Inhibition of NF-kappaB (unknown origin) expressed in TNFalpha-stimulated HEK293 cells expressing pGL3-Luc assessed inhibition of transactivation activity after 24 hrs by luciferase assay; format: cell-based; settings: Homo sapiens
Mus musculus [4] = experiment: Antiphotoaging activity in DBA-2 mouse assessed as reduction of UVB-induced epidermal hyperproliferation in ear tissue at 92.4 mg/kg, po as powder qd for 12 days relative to untreated control; format: functional, organism-based; parameters: dose 92.4 mg/kg
[5] = biological target: Transcription factor p65 (Homo sapiens) (UniProt Q04206); experiment: Inhibition of NF-kappaB-65 (unknown origin)-mediated transactivation in TNFalpha-stimulated HEK293 cells assessed inhibition of I-kappaB phosphorylation and degradation after 24 hrs; format: cell-based
[6] = biological target: Transcription factor p65 (Homo sapiens) (UniProt Q04206); experiment: Inhibition of NF-kappaB-65 (unknown origin) expressed in human keratinocytes assessed as inhibition of bFGF production at 4 uM by EIA; format: cell-based
Mus musculus [7] = experiment: Antiphotoaging activity in DBA-2 mouse assessed as reduction of UVB-induced PCNA-positive cell in ear tissue at 92.4 to 462.2 mg/kg, po as powder qd for 12 days; format: functional, organism-based
Mus musculus [8] = experiment: Antiphotoaging activity in DBA-2 mouse assessed as reduction of UVB-induced epidermal hyperproliferation in ear tissue at 462.2 mg/kg, po as powder qd for 12 days relative to untreated control; format: functional
[9] = biological target: Transcription factor p65 (Homo sapiens) (UniProt Q04206); experiment: Inhibition of NF-kappaB-65 (unknown origin) expressed in human dermal fibroblasts assessed as inhibition of MMP1 production at 4 uM by EIA
[10] = biological target: Transcription factor p65 (Homo sapiens) (UniProt Q04206); experiment: Inhibition of NF-kappaB-65 (unknown origin) expressed in TNFalpha-stimulated HEK293 cells assessed inhibition of nuclear translocation at 8 uM after 3 hrs; format: cell-based

C=C(CO)C(=O)O[C@H]1CC(=C)[C@@H]2C[C@H](O)C(=C)[C@@H]2[C@H]2OC(=O)C(=C)[C@@H]21 [CYNAROPICRIN]
fold change (FC) (Mus musculus [1]): 4.3 | inhibition [2]: Active | Activity (Mus musculus [3]): Dose-dependent effect | inhibition (HEK293): Dose-dependent effect | Activity (Mus musculus [4]): Active | inhibition [5]: Dose-dependent effect | inhibition [6]: Active | Activity (Mus musculus [7]): inactive | fold change (FC) (Mus musculus [8]): 1.7 | inhibition [9]: Active | inhibition [10]: Active
